Assay: Thermodynamic stability of the solid forms of compound (I)
Format: physicochemical
Conditions: compared with the other solid forms of compound (I)

- thermodynamic stability among solid forms: thermodynamically stable form
Structure (SMILES): CC(C)(O)c1cc2nn(CCS(C)(=O)=O)cc2cc1NC(=O)c1cccc(C(F)(F)F)n1 [Polymorphic form B, N-{6-(2-Hydroxypropan-2-yl)-2-[2-(methylsulphonyl)ethyl]-2H-indazol-5-yl}-6-(trifluoromethyl)pyridine-2-carboxamide]
